Measured values from ChEMBL document CHEMBL4402510, “Caprazamycins: Promising lead structures acting on a novel antibacterial target MraY” (Eur J Med Chem, 2019).
Values after ≈ are worked out from the molar mass of the structure shown.

What was measured:
[1] = system: Enterococcus faecium; test: Antibacterial activity against Enterococcus faecium ATCC 19434; assay type: functional
[2] = system: Haemophilus influenzae; test: Antibacterial activity against Haemophilus influenzae ATCC 10211; assay type: functional
[3] = system: Enterococcus faecalis; test: Antibacterial activity against Enterococcus faecalis ATCC 29212; assay type: functional
[4] = system: Enterococcus faecalis; test: Antibacterial activity against Enterococcus faecalis SR7914 (VRE); assay type: functional
[5] = biological target: T1, Phospho-N-acetylmuramoyl-pentapeptide-transferase (Staphylococcus aureus, UniProt P0C1R8); test: Inhibition of MraY in Staphylococcus aureus
T1 sequence (P0C1R8 whole entry): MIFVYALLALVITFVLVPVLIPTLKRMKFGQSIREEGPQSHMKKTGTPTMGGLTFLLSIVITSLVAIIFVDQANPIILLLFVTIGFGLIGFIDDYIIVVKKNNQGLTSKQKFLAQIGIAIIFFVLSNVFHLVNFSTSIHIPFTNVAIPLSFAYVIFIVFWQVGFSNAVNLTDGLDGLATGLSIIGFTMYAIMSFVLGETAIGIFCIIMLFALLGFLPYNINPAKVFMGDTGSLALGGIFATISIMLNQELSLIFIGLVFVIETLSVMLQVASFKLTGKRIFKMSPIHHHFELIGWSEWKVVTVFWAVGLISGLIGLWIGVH

[6] = system: Staphylococcus aureus; test: Antibacterial activity against methicillin susceptible Staphylococcus aureus ATCC 29213; assay type: functional
[7] = system: Staphylococcus aureus; test: Antibacterial activity against methicillin resistant Staphylococcus aureus SR3637; assay type: functional
[8] = system: Enterococcus faecium; test: Antibacterial activity against Enterococcus faecium SR7917 (VRE); assay type: functional
[9] = system: Streptococcus pneumoniae; test: Antibacterial activity against Streptococcus pneumoniae; assay type: functional
[10] = system: Escherichia coli; test: Antibacterial activity against Escherichia coli ATCC 25922; assay type: functional
[11] = system: Acinetobacter baumannii; test: Antibacterial activity against Acinetobacter baumannii ATCC 19606; assay type: functional; conditions: ATCC 19606 = CIP 70.34 = JCM 6841
[12] = system: Pseudomonas aeruginosa; test: Antibacterial activity against Pseudomonas aeruginosa PAO1 deltamexB; assay type: functional
[13] = system: Pseudomonas aeruginosa; test: Antibacterial activity against Pseudomonas aeruginosa YY165; assay type: functional
[14] = biological target: T2, Phospho-N-acetylmuramoyl-pentapeptide-transferase (Aquifex aeolicus (strain VF5), UniProt O66465); test: Inhibition of MraY in Aquifex aeolicus
T2 sequence (O66465 whole entry): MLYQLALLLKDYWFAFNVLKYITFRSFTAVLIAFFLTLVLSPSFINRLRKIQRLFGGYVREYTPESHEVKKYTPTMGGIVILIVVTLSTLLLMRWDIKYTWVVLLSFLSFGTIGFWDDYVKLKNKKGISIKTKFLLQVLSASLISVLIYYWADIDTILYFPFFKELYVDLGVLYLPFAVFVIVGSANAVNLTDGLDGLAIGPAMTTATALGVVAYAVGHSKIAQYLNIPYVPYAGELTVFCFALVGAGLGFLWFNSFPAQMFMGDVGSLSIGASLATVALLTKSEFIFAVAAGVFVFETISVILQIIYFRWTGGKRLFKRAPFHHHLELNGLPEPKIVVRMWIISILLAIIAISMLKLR

[15] = system: Escherichia coli; test: Antibacterial activity against Escherichia coli ATCC 8730; assay type: functional
[16] = system: Citrobacter freundii; test: Antibacterial activity against Citrobacter freundii ATCC 8090; assay type: functional
[17] = system: Pseudomonas aeruginosa; test: Antibacterial activity against Pseudomonas aeruginosa ATCC 27853; assay type: functional
[18] = system: Staphylococcus aureus; test: Antibacterial activity against Staphylococcus aureus ATCC 25923; assay type: functional
[19] = system: Staphylococcus aureus; test: Antibacterial activity against methicillin resistant Staphylococcus aureus ATCC 43300; assay type: functional
[20] = biological target: T3, Phospho-N-acetylmuramoyl-pentapeptide-transferase (Bacillus subtilis (strain 168), UniProt Q03521); test: Inhibition of MraY in Bacillus subtilis
T3 sequence (Q03521 whole entry): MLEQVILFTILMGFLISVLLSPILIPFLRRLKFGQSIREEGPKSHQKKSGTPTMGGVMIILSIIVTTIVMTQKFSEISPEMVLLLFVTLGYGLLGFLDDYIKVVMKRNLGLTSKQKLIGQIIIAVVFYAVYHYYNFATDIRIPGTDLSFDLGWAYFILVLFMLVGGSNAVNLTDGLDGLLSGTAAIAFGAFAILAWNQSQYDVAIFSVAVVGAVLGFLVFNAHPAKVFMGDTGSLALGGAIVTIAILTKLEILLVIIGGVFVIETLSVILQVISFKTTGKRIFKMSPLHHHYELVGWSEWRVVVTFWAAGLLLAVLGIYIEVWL

[21] = system: Enterococcus faecalis; test: Antibacterial activity against t Enterococcus faecalis after 20 hrs by NCCLS-based two-fold broth dilution method; assay type: functional
[22] = system: Enterococcus faecalis; test: Antibacterial activity against t Enterococcus faecalis VRE after 20 hrs by NCCLS-based two-fold broth dilution method; assay type: functional
[23] = system: Staphylococcus aureus; test: Antibacterial activity against methicillin resistant Staphylococcus aureus after 20 hrs by NCCLS-based two-fold broth dilution method; assay type: functional
[24] = system: Staphylococcus aureus; test: Antibacterial activity against methicillin susceptible Staphylococcus aureus after 20 hrs by NCCLS-based two-fold broth dilution method; assay type: functional
[25] = system: Enterococcus faecium; test: Antibacterial activity against t Enterococcus faecium VRE after 20 hrs by NCCLS-based two-fold broth dilution method; assay type: functional

## CC(=O)N[C@@H]1CCN[C@H]([C@H](O[C@@H]2O[C@H](CN)[C@@H](O)[C@H]2O)[C@H]2O[C@@H](n3ccc(=O)[nH]c3=O)[C@H](O)[C@@H]2O)C1
[1]
  MIC: > 64 µg/mL
[2]
  MIC: > 64 µg/mL
[3]
  MIC: > 64 µg/mL
[4]
  MIC: > 64 µg/mL
[5]
  IC50: 2600 µM
[6]
  MIC: > 64 µg/mL
[7]
  MIC: > 64 µg/mL
[8]
  MIC: > 64 µg/mL
[9]
  MIC: > 64 µg/mL
[10]
  MIC: > 64 µg/mL
[11]
  MIC: > 64 µg/mL
[12]
  MIC: > 64 µg/mL
[13]
  MIC: > 64 µg/mL

## NC[C@H]1O[C@@H](O[C@@H](Cc2cn(Cc3ccc(COc4ccc(C(=O)c5ccccc5)cc4)cc3)nn2)[C@H]2O[C@@H](n3ccc(=O)[nH]c3=O)[C@H](O)[C@@H]2O)[C@H](O)[C@@H]1O
[14]
  IC50: 20 µM
[15]
  MIC: > 128 µg/mL
[16]
  MIC: > 128 µg/mL
[17]
  MIC: > 128 µg/mL
[18]
  MIC: 64 µg/mL (≈ 84.6 µM)
[19]
  MIC: 32 µg/mL (≈ 42.3 µM)
[1]
  MIC: > 128 µg/mL

## CC(=O)N[C@@H]1CCN[C@@H]([C@@H](O[C@@H]2O[C@H](CN)[C@@H](O)[C@H]2O)[C@H]2O[C@@H](n3ccc(=O)[nH]c3=O)[C@H](O)[C@@H]2O)C1
[1]
  MIC: > 64 µg/mL
[2]
  MIC: > 64 µg/mL
[3]
  MIC: > 64 µg/mL
[4]
  MIC: > 64 µg/mL
[5]
  IC50: > 4200 µM
[6]
  MIC: > 64 µg/mL
[7]
  MIC: > 64 µg/mL
[8]
  MIC: > 64 µg/mL
[9]
  MIC: > 64 µg/mL
[10]
  MIC: > 64 µg/mL
[11]
  MIC: > 64 µg/mL
[12]
  MIC: > 64 µg/mL
[13]
  MIC: > 64 µg/mL

## NC[C@H]1O[C@@H](O[C@@H](Cc2cn(CCCCCCCCCCc3ccccc3)nn2)[C@H]2O[C@@H](n3ccc(=O)[nH]c3=O)[C@H](O)[C@@H]2O)[C@H](O)[C@@H]1O
[14]
  IC50: 20 µM
[15]
  MIC: > 128 µg/mL
[16]
  MIC: > 128 µg/mL
[17]
  MIC: > 128 µg/mL
[18]
  MIC: 32 µg/mL (≈ 47.6 µM)
[19]
  MIC: 16 µg/mL (≈ 23.8 µM)
[1]
  MIC: 64 µg/mL (≈ 95.1 µM)

## NC[C@H]1O[C@@H](O[C@@H](c2cn(CCCCCOc3ccc(C(=O)c4ccccc4)cc3)nn2)[C@H]2O[C@@H](n3ccc(=O)[nH]c3=O)[C@H](O)[C@@H]2O)[C@H](O)[C@@H]1O
[20]
  IC50: 100 µM
[15]
  MIC: > 128 µg/mL
[16]
  MIC: > 128 µg/mL
[17]
  MIC: > 128 µg/mL
[18]
  MIC: > 128 µg/mL
[19]
  MIC: 64 µg/mL (≈ 90.3 µM)
[1]
  MIC: > 128 µg/mL

## CC(=O)N[C@H]1CCN[C@H]([C@H](O[C@@H]2O[C@H](CN)[C@@H](O)[C@H]2O)[C@H]2O[C@@H](n3ccc(=O)[nH]c3=O)[C@H](O)[C@@H]2O)C1
[1]
  MIC: > 64 µg/mL
[2]
  MIC: > 64 µg/mL
[3]
  MIC: > 64 µg/mL
[4]
  MIC: > 64 µg/mL
[5]
  IC50: 4000 µM
[6]
  MIC: > 64 µg/mL
[7]
  MIC: > 64 µg/mL
[8]
  MIC: > 64 µg/mL
[9]
  MIC: > 64 µg/mL
[10]
  MIC: > 64 µg/mL
[11]
  MIC: > 64 µg/mL
[12]
  MIC: > 64 µg/mL
[13]
  MIC: > 64 µg/mL

## CC(=O)N[C@H]1CCN[C@H]([C@@H](O[C@@H]2O[C@H](CN)[C@@H](O)[C@H]2O)[C@H]2O[C@@H](n3ccc(=O)[nH]c3=O)[C@H](O)[C@@H]2O)C1
[1]
  MIC: > 64 µg/mL
[2]
  MIC: > 64 µg/mL
[3]
  MIC: > 64 µg/mL
[4]
  MIC: > 64 µg/mL
[5]
  IC50: > 4200 µM
[6]
  MIC: > 64 µg/mL
[7]
  MIC: > 64 µg/mL
[8]
  MIC: > 64 µg/mL
[9]
  MIC: > 64 µg/mL
[10]
  MIC: > 64 µg/mL
[11]
  MIC: > 64 µg/mL
[12]
  MIC: > 64 µg/mL
[13]
  MIC: > 64 µg/mL

## NC[C@H]1O[C@@H](O[C@@H](c2cn(Cc3ccc(COc4ccc(C(=O)c5ccccc5)cc4)cc3)nn2)[C@H]2O[C@@H](n3ccc(=O)[nH]c3=O)[C@H](O)[C@@H]2O)[C@H](O)[C@@H]1O
[14]
  IC50: 75 µM
[20]
  IC50: 50 µM
[15]
  MIC: > 128 µg/mL
[16]
  MIC: > 128 µg/mL
[17]
  MIC: > 128 µg/mL
[18]
  MIC: > 128 µg/mL
[19]
  MIC: 32 µg/mL (≈ 43.1 µM)
[1]
  MIC: > 128 µg/mL

## NC[C@H]1O[C@@H](O[C@@H](Cn2cc(CCCCCCCCCCOc3ccc(C(=O)c4ccccc4)cc3)nn2)[C@H]2O[C@@H](n3ccc(=O)[nH]c3=O)[C@H](O)[C@@H]2O)[C@H](O)[C@@H]1O
[14]
  IC50: 25 µM
[15]
  MIC: > 128 µg/mL
[16]
  MIC: > 128 µg/mL
[17]
  MIC: > 128 µg/mL
[18]
  MIC: 16 µg/mL (≈ 20.2 µM)
[19]
  MIC: 8 µg/mL (≈ 10.1 µM)
[1]
  MIC: 128 µg/mL (≈ 161 µM)

## CCCCCCCCCCc1cn(C[C@H](O[C@@H]2O[C@H](CN)[C@@H](O)[C@H]2O)[C@H]2O[C@@H](n3ccc(=O)[nH]c3=O)[C@H](O)[C@@H]2O)nn1
[14]
  IC50: 35 µM
[15]
  MIC: > 128 µg/mL
[16]
  MIC: > 128 µg/mL
[17]
  MIC: 128 µg/mL (≈ 215 µM)
[18]
  MIC: 16 µg/mL (≈ 26.8 µM)
[19]
  MIC: 64 µg/mL (≈ 107 µM)
[1]
  MIC: > 128 µg/mL

## CCCCCCCCCCCCCCCC(=O)NC[C@@H]1C[C@H]2[C@@H](C(=O)N1CCCNC(=N)N)[C@H]([C@H]1O[C@@H](n3ccc(=O)[nH]c3=O)[C@H](O)[C@@H]1O)ON2CCCN
[21]
  MIC: 16 µg/mL (≈ 20.6 µM)
[22]
  MIC: 16 µg/mL (≈ 20.6 µM)
[23]
  MIC: 8 µg/mL (≈ 10.3 µM)
[24]
  MIC: 8 µg/mL (≈ 10.3 µM)
[25]
  MIC: 8 µg/mL (≈ 10.3 µM)
[3]
  MIC: 16 µg/mL (≈ 20.6 µM)
[4]
  MIC: 16 µg/mL (≈ 20.6 µM)
[6]
  MIC: 8 µg/mL (≈ 10.3 µM)
[7]
  MIC: 8 µg/mL (≈ 10.3 µM)
[8]
  MIC: 8 µg/mL (≈ 10.3 µM)

## CCCCCCCCCCn1cc(C[C@H](O[C@@H]2O[C@H](CN)[C@@H](O)[C@H]2O)[C@H]2O[C@@H](n3ccc(=O)[nH]c3=O)[C@H](O)[C@@H]2O)nn1
[14]
  IC50: 15 µM
[15]
  MIC: > 128 µg/mL
[16]
  MIC: > 128 µg/mL
[17]
  MIC: > 128 µg/mL
[18]
  MIC: 128 µg/mL (≈ 215 µM)
[19]
  MIC: 64 µg/mL (≈ 107 µM)
[1]
  MIC: > 128 µg/mL

## NC[C@H]1O[C@@H](O[C@@H](Cn2cc(CCCCCCCCCCc3ccccc3)nn2)[C@H]2O[C@@H](n3ccc(=O)[nH]c3=O)[C@H](O)[C@@H]2O)[C@H](O)[C@@H]1O
[14]
  IC50: 30 µM
[15]
  MIC: > 128 µg/mL
[16]
  MIC: > 128 µg/mL
[17]
  MIC: 64 µg/mL (≈ 95.1 µM)
[18]
  MIC: 64 µg/mL (≈ 95.1 µM)
[19]
  MIC: 16 µg/mL (≈ 23.8 µM)
[1]
  MIC: 32 µg/mL (≈ 47.6 µM)
